Patent US20100081679A1, “DIAMINOPYRIMIDINES AS FUNGICIDES” (Bayer CropScience AG, priority 2007, published 2010)
Marks after values point to notes of the source that are not given here.

assay: logP determination via retention times, calibrated with unbranched alkan-2-ones; type: physicochemical; settings: HPLC on reversed-phase C 18, EEC Directive 79/831 Annex V.A8; method *: 40° C., 0.1% aqueous formic acid and acetonitrile, linear gradient 10% to 95% acetonitrile

SMILES	logP
CC(C)(C)OC(=O)Nc1cccc(Nc2ncc(Cl)c(NCC3CC3)n2)c1 [compound 524]	2.33*
CCOC(=O)Nc1cccc(Nc2ncc(Cl)c(NCC3CC3)n2)c1 [compound 513]	1.9*
CC(C)(CCl)C(=O)Nc1ccc(Nc2ncc(Cl)c(NCC3CC3)n2)cc1 [compound 556]	2.02*
O=S(=O)(Cc1ccc(Nc2ncc(Cl)c(NC3CC3)n2)cc1)N1CCCCC1 [compound 537]	2.17*
CC(C)(CF)C(=O)Nc1cccc(Nc2ncc(Br)c(NCC3CC3)n2)c1 [compound 467]	1.99*
CCOC(=O)Nc1ccc(Nc2ncc(Cl)c(NCC3CC3)n2)cc1O [compound 542]	1.68*
CC(=O)c1cc(Nc2ncc(Br)c(NCC3CC3)n2)ccc1Cl [compound 487]	2.67*
CCC(=O)c1cc(Nc2ncc(Br)c(NCC3CC3)n2)ccc1O [compound 488]	2.21*
OCc1cccc(Nc2ncc(Cl)c(NCC3CC3)n2)c1 [compound 560]	1.47*
Fc1ccc(Nc2ncc(Br)c(NC3CC3)n2)cc1 [compound 499]	1.96*
CC(C)(C)NC(=O)Cc1cccc(Nc2ncc(Cl)c(NCC3CC3)n2)c1 [compound 561]	1.93*
CC1COC(=O)N1c1cccc(Nc2ncc(Br)c(NC3CC3)n2)c1 (stereo not shown) [compound 533]	1.68*

same assay, conditions: HPLC on reversed-phase C 18, method **: 43° C.; 0.1% aqueous phosphoric acid and acetonitrile; linear gradient 10% to 95% acetonitrile

SMILES	logP
COCc1cccc(Nc2ncc(Cl)c(N(C)CC3CC3)n2)c1 [compound 965]	2.71**

same assay, conditions: HPLC on reversed-phase C18, method **: 43° C.; mobile phase 0.1% aqueous phosphoric acid and acetonitrile; linear gradient 10% to 95% acetonitrile

SMILES	logP
CC(C)(C)NS(=O)(=O)Cc1cccc(Nc2ncc(Cl)c(NC3CC3)n2)c1 [compound 327]	2.05**

same assay, conditions: HPLC on reversed-phase C18, method *: 40° C., 0.1% aqueous formic acid and acetonitrile, linear gradient 10% to 95% acetonitrile

SMILES	logP
CCN(CC)C(=O)c1cccc(Nc2ncc(Cl)c(NC3CC3)n2)c1 [compound 701]	1.86*
CC(=O)CCc1cccc(Nc2ncc(C(F)(F)F)c(NC3CC3)n2)c1 [compound 959]	2.68*
Cc1ccccc1Nc1ncc(Cl)c(NC2CC2)n1 [compound 938]	1.61*
Clc1ccc(Nc2ncc(Cl)c(NC3CC3)n2)cc1Br [compound 942]	3.55*
CCC(C)Oc1cc(Nc2ncc(Cl)c(NC3CC3)n2)ccc1C (racemic) [compound 955]	2.99*
CC(C)C(=O)Nc1ccc(Nc2ncc(C(F)(F)F)c(NC3CC3)n2)cc1 [compound 663]	2.11*
CCC(=O)Nc1ccc(Nc2ncc(C(F)(F)F)c(NC3CC3)n2)cc1 [compound 710]	1.93*
O=C(N(c1ccc(Nc2ncc(Cl)c(NC3CC3)n2)cc1)C1CC1)C(F)(F)F [compound 120]	2.54*
Brc1cnc(Nc2ccc(-c3cscn3)cc2)nc1NC1CC1 [compound 747]	1.99*
COC(=O)c1ccc(Nc2ncc(Cl)c(NCC3CC3)n2)cc1Cl [compound 691]	3.1*
O=C1CCCN1c1ccc(Nc2ncc(Cl)c(NCC3CC3)n2)cc1 [compound 154]	1.5*
FC(F)(F)c1cnc(Nc2ccccc2)nc1NCC1CC1 [compound 922]	2.99*
CCCc1ccc(Nc2ncc(Cl)c(NC3CC3)n2)cc1 [compound 953]	2.5*
CC(C)C(=O)Nc1ccc(Nc2ncc(Cl)c(NC3CC3)n2)cc1 [compound 111]	1.43*
CC(C)(C)C(=O)Cc1ccc(Nc2ncc(Cl)c(NCC3CC3)n2)cc1 [compound 676]	2.39*

same assay, conditions: HPLC on reversed-phase C18, method *: 40° C.; mobile phase 0.1% aqueous formic acid and acetonitrile; linear gradient 10% to 95% acetonitrile

SMILES	logP
COc1cc(Nc2ncc(Cl)c(NC3CC3)n2)ccc1NC(C)=O [compound 280]	1.18*
FC(F)(F)Oc1cccc(Nc2ncc(Br)c(NC3CC3)n2)c1 [compound 301]	3.68*
FC(F)(F)Oc1ccc(Nc2ncc(Cl)c(NC3CC3)n2)cc1Cl [compound 296]	3.9*
FC(F)Oc1cc(Nc2ncc(Br)c(NC3CC3)n2)ccc1Cl [compound 311]	3.44*
CC(=O)c1cccc(Nc2ncc(Br)c(NC3CC3)n2)c1 [compound 358]	1.85*

same assay, conditions: HPLC on reversed-phase C18 column (EEC Directive 79/831 Annex V.A8); method *: 40° C.; 0.1% aqueous formic acid and acetonitrile; linear gradient 10% to 95% acetonitrile

SMILES	logP
Cc1cc(O)ccc1Nc1ncc(Cl)c(NC2CC2)n1 [compound 177]	1.09*
CC(=O)Nc1cccc(Nc2ncc(C(F)(F)F)c(NCC3CC3)n2)c1 [compound 204]	1.9*
CSc1cccc(Nc2ncc(C(F)(F)F)c(NCC3CC3)n2)c1 [compound 208]	3.41*
Clc1cnc(Nc2ccc(NC3CC3)nc2)nc1NC1CC1 [compound 186]	0.92*
FC(F)C(F)(F)Oc1cccc(Nc2ncc(Cl)c(NC3CC3)n2)c1 [compound 182]	3.03*
Cc1cc(Nc2ncc(Cl)c(NC3CC3)n2)ccc1O [compound 180]	1.09*
CC(C)(C)C(=O)Nc1ccc(Nc2ncc(C(F)(F)F)c(NCC3CC3)n2)cc1 [compound 201]	2.6*
CC(=O)N(C)c1ccc(Nc2ncc(C(F)(F)F)c(NCC3CC3)n2)cc1 [compound 202]	2.13*
CCC(=O)c1ccc(Nc2ncc(Cl)c(NC3CC3)n2)cc1 [compound 257]	2.34*
CC(C)(C)C(=O)Cc1ccc(Nc2ncc(C(F)(F)F)c(NCC3CC3)n2)cc1 [compound 210]	3.41*
FC(F)(F)Nc1cccc(Nc2ncc(Cl)c(NC3CC3)n2)c1 [compound 184]	3.55*
O=S(=O)(c1cccc(Nc2ncc(C(F)(F)F)c(NCC3CC3)n2)c1)N1CCCCC1 [compound 209]	3.81*

same assay, conditions: HPLC reversed-phase C 18, EEC Directive 79/831 Annex V.A8; method **: 43° C., 0.1% aqueous phosphoric acid and acetonitrile, linear gradient 10% to 95% acetonitrile

SMILES	logP
COCc1cccc(Nc2nc(C)c(Cl)c(NC3CC3)n2)c1 [compound 839]	1.67**

same assay, conditions: HPLC reversed-phase C 18, EEC Directive 79/831 Annex V.A8; method *: 40° C., 0.1% aqueous formic acid and acetonitrile, linear gradient 10% to 95% acetonitrile

SMILES	logP
COc1cccc(Nc2ncc(I)c(NC3CC3)n2)c1 [compound 855]	1.97*
CC(C)c1cccc(Nc2ncc(Cl)c(NCC3CC3)n2)c1 [compound 777]	2.71*
CC(C)(C)CSCc1ccc(Nc2ncc(Cl)c(NC3CC3)n2)cc1 [compound 823]	3.78*
CSc1cccc(Nc2ncc(I)c(NC3CC3)n2)c1 [compound 858]	2.44*
N#CCc1cc(Nc2ncc(Cl)c(NCC3CC3)n2)ccc1F [compound 816]	1.87*

same assay, conditions: method **: HPLC reversed-phase C 18, 43° C., 0.1% aqueous phosphoric acid and acetonitrile, linear gradient 10% to 95% acetonitrile

SMILES	logP
N#Cc1cc(Nc2ncc(Cl)c(NC3CC3)n2)ccc1N1CCCC1 [compound 439]	2.23**
NS(=O)(=O)c1cc(Nc2ncc(Cl)c(NC3CC3)n2)cc(C(F)(F)F)c1 [compound 17]	2.48**
NS(=O)(=O)c1ccc(Nc2ncc(F)c(NC3CC3)n2)cc1 [compound 46]	0.95**

same assay, conditions: method **: HPLC reversed-phase C 18, temperature 43° C.; mobile phase 0.1% aqueous phosphoric acid and acetonitrile; linear gradient 10% to 95% acetonitrile

SMILES	logP
Clc1cnc(Nc2cccc(N3CCCC3)c2)nc1NC1CC1 [compound 619]	2.23**

same assay, conditions: method *: HPLC reversed-phase C18, 40° C., 0.1% aqueous formic acid and acetonitrile, linear gradient 10% to 95% acetonitrile

SMILES	logP
CC(=O)c1cc(Nc2ncc(Br)c(NCC3CC3)n2)ccc1O [compound 463]	1.92*
CN(C)S(=O)(=O)Cc1cccc(Nc2ncc(Cl)c(NC3CC3)n2)c1 [compound 431]	1.62*
COc1cc(Nc2ncc(C)c(NC3CC3)n2)cc(OC)c1OC [compound 52]	1.47*
O=C1NC(=O)C(c2ccc(Nc3ncc(Br)c(NC4CC4)n3)cc2)N1 (stereo not shown) [compound 384]	0.62*
Clc1cnc(Nc2ccc3[nH]ccc3c2)nc1NC1CC1 [Example 71]	1.47*
COC(=O)c1ccc(Nc2ncc(Cl)c(NC3CC3)n2)cc1 [Example 37]	2.23*
CSc1ccc(Nc2ncc(Cl)c(NC3CC3)n2)cc1 [Example 69]	2.1*
CNC(=O)c1cccc(Nc2ncc(Br)c(NCC3CC3)n2)c1 [compound 427]	1.53*
O=C1CCCN1c1ccc(Nc2ncc(Br)c(NC3CC3)n2)cc1 [Example 97]	1.49*
O=C1CCCN1Cc1ccc(Nc2ncc(Cl)c(NC3CC3)n2)cc1 [compound 432]	1.36*
Cc1ccc(S(=O)(=O)O)cc1.O=C1CCCN1c1ccc(Nc2ncc(Cl)c(NC3CC3)n2)cc1 [Example 89]	1.44*
CC(=O)c1ccc(Nc2ncc(Br)c(NCC3CC3)n2)cc1 [compound 456]	2.26*

same assay, conditions: method *: HPLC reversed-phase C 18, temperature 40° C.; mobile phase 0.1% aqueous formic acid and acetonitrile; linear gradient 10% to 95% acetonitrile

SMILES	logP
CC(C)c1cccc(Nc2ncc(Cl)c(NC3CC3)n2)c1 [compound 633]	2.63*
Fc1cc(F)cc(Nc2ncc(Cl)c(NCC3CC3)n2)c1 [compound 603]	3.42*
CC(C)(CF)C(=O)Nc1cccc(Nc2ncc(F)c(NC3CC3)n2)c1 [compound 600]	1.55*
COC(=O)Nc1cccc(Nc2ncc(F)c(NC3CC3)n2)c1 [compound 598]	1.37*
CN1CCN(c2cccc(Nc3ncc(Cl)c(NCC4CC4)n3)c2)C1=O [compound 618]	1.58*
CCNC(=O)c1cccc(Nc2ncc(Cl)c(NC3CC3)n2)c1 [compound 631]	1.35*
O=C1CCCN1c1cccc(Nc2ncc(I)c(NC3CC3)n2)c1 [compound 637]	1.6*
C#Cc1cccc(Nc2ncc(C(F)(F)F)c(NC3CC3)n2)c1 [compound 627]	3.36*

same assay, conditions: method *: HPLC, reversed-phase C 18, 40° C., mobile phase 0.1% aqueous formic acid and acetonitrile, linear gradient from 10% to 95% acetonitrile

SMILES	logP
CCCCCc1ccc(Nc2ncc(Cl)c(NC3CC3)n2)cc1 [compound 1048]	3.55*
COC(=O)c1cc(Nc2ncc(Cl)c(NC3CC3)n2)ccc1OC [compound 1004]	1.58*
COC(=O)c1cc(Nc2ncc(Cl)c(NC3CC3)n2)ccc1O [compound 993]	1.81*
